The record followed here is US9642895B2, “Peptides for enhancing transdermal delivery” (3M INNOVATIVE PROPERTIES COMPANY, priority 2013, dated 2017).

For assay [1], the system named is human cadaver skin. The experiment in a line: Phage display library selection for skin penetration using tape stripping. It is filed as in vitro ADME. As to conditions: phage-displayed peptide; phages recovered from tape strips 21-24 and remaining skin after 4 rounds of selection; 57 plaques sequenced. How it is done:
(§1) Human cadaver skin was stored frozen. Prior to using, the frozen sections were placed in PBS and warmed to room temperature. The phage libraries or synthesized peptide sequences were applied to the stratum corneum side of the skin sample.
A tube containing LB medium (2 mL) and tetracycline (at a concentration of 20 μg/mL) was inoculated with E. coli ER2738 cells and then incubated overnight at 37° C. with shaking (200 rpm). An aliquot (100 microliter) was added to 20 mL of fresh LB medium containing 20 μg/mL of tetracycline. The culture was incubated at 37° C. with shaking (200 rpm) of the flask and the cells were grown to the early-log phase (OD600=0.5). Next, the phage sample was added and the culture was maintained for 4 hours at 37° C. with shaking of the flask.
E. coli ER2738 cells were removed from the phage amplified culture sample by centrifugation at 8000 rpm for 10 minutes. The resulting supernatant solution was added to the PEG/NaCl Phage precipitating solution (at a concentration of […]) and then maintained at 4° C. for 2 hours. The resulting phage precipitate was recovered by centrifuging the sample (8000 rpm for 30 min), removing the supernatant, and re-suspending the phage pellet in 2 mL of Tris-buffered saline (Tris buffered saline reagent prepared as 50 mM Tris-HCl in 150 mM NaCl buffered saline, pH 7.5). The amplified phage product was stored at 4° C.
LB Broth Medium (5-10 mL) was inoculated with a single colony of E. coli ER2738 and incubated with shaking (200 rpm) at 37° C. until the cells reached the early-log growth phase (OD600=0.5). The culture medium was then dispensed into multiple microfuge tubes (200 microliters per microfuge tube with one tube prepared for each phage dilution). Ten fold serial dilutions of amplified phage product in LB broth medium were prepared and a 10 microliter aliquot from each dilution was added to a separate microfuge tube containing culture medium. Each tube was vortexed and incubated at room temperature for 1-5 minutes.
The contents of each microfuge tube were transferred to a corresponding culture tube containing 3mL of soft agar maintained at 45° C. Each culture tube was then vortexed and the soft agar was poured onto a corresponding pre-warmed (37° C.) LB/IPTG/X-gal\tetraycline Petri plate. The resulting plates were gently tilted and rotated in order to evenly spread the soft agar on the plates. The plates were cooled for five minutes, inverted, and then incubated overnight at 37° C. Plates having approximately 100 plaques were counted providing an adjustment for the dilution factor. Single plaque phages on the plates were selected and further processed for DNA sequencing.
(§2) E. coli ER2738 cell culture (800 microliters of an early-log phase prepared as described above) was added to each well of a 96 deep well plate (each well having a 2 mL volume). Single plaque phages were randomly selected from Petri plates prepared as described in the phage titration procedure. A sterilized toothpick was used to remove a plaque from the Petri plate and transfer it to a well in the 96 well plate. The infected E. coli ER2738 cells were incubated for 4 hours at 37° C. with shaking (300 rpm). The liquid cultures were then centrifuged (4000 rpm for 60 min at 4° C.) and an aliquot of the resulting phage supernatant (10 microliters) from each well was sequenced for DNA using the rolling circle amplification method. The DNA sequencing was conducted at MCLAB (South San Francisco, Calif.).
Each phage display library (200 microliters in PBS) was applied to a 1 cm^2 section of human cadaver skin using a PIPETMAN Classic pipet (Gilson Inc., Middleton, Wis.). Adhesive tape was used to form a square frame that defined the application site. After 1 hour, the application site was washed with PBS to remove phages remaining on the skin surface. Tape stripping of the skin sample was accomplished using Scotch® box tape (3M Company, Maplewood, Minn.). […]

A further assay relates to Hairless guinea pigs. The experiment in a line: Phage display library selection for skin penetration, in vivo hairless guinea pig procedure. Conditions: phage-displayed peptide; phages recovered from blood 1 hour after loading on back skin; 48 plaques sequenced. How it is done:
as §2
Hairless guinea pigs (200 gram females from Charles River Laboratory, Wilmington, Mass.) were anesthetized in a chamber using 3-5% isoflurane in oxygen or air, and maintained at 1.5-3% isoflurane with a co-axial breathing device (COAX-3 obtained from Viking Medical, Medford Lakes, N.J.). Each animal was placed in lateral recumbency on a thermostatically controlled surface with its nose and mouth inside the anesthetic face mask for the duration of the experiment. During the procedure, the animal was monitored for respiration rate and the level of anesthesia was adjusted as required. The section of the back used for loading a phage library was wiped with a 70% isopropanol in water solution.
A phage display library containing about 10^11 phage particles in 200 microliters of PBS was loaded onto a 1 cm^2 section of skin on the back of the animal using a PIPETMAN Classic pipet. In order to both control the humidity and reduce contamination at the application site, a Hill Top Chamber® (Hill Top Research, St. Petersburg, Fla.) was placed over the application site and attached with adhesive. After 1 hour, 10 mL of blood was bled from the heart. The blood was immediately transferred to a vial containing heparin (1000 USP units per mL). The sample of blood (10 mL) was mixed with 50 mL of E. coli ER2738 cells in LB broth medium (early log phase, OD600=0.5) and then added to 300 mL of soft agar. Equal portions of soft agar containing blood and ER2738 (about 7 mL per plate) were added to fifty LB/IPTG/X-gal/tetracycline Petri plates. The plates were incubated overnight at 37° C. The resulting single plaque phages were randomly picked from the agar plate and processed for phage DNA sequencing using the procedure described above. DNA sequences were successfully obtained from 48 of the 96 isolated phage plaques.

The subject of assay [2] is human cadaver skin. The experiment in a line: In vitro skin penetration enhancement of GFP, tape stripping. Type of assay: in vitro ADME. Conditions: 0.1 mg peptide with GFP 2.55 mg/mL in PBS; 2 hours at room temperature; 20 tape strips; control without peptide reached tape strip 6. How it is done:
as §1
An in vitro assay to test for skin penetration enhancement was conducted using human cadaver skin. Two test samples (A and B) and a control sample were prepared. Test sample A contained GFP (at a concentration of 2.55 mg/mL), 0.1 mg of the peptide ACLDNTFRAC (Sequence ID No: 6, Table 2), and PBS (50 microliters). Test sample B contained GFP (at a concentration of 2.55 mg/mL), 0.1 mg of the peptide SHSACLDNTFRACGGGS (Sequence ID No: 14, Table 3), and PBS (50 microliters). The control sample contained GFP (at a concentration of 2.55 mg/mL) and PBS (100 microliters). Each sample was applied to a separate 1 cm^2 section of human cadaver skin using a PIPETMAN classic pipet. Adhesive tape was used to form a square frame that defined each application site. The treated skin samples were covered, maintained at room temperature for 2 hours, and then washed with deionized water for 5 minutes to remove any GFP remaining on the skin surface. Tape stripping of each skin application site was accomplished using Scotch® box tape. […]

The subject of a further assay is hairless guinea pig skin. In words: In vitro skin penetration enhancement of FITC, tape stripping. It is filed as in vitro ADME. Conditions: peptide 1 mg/mL with FITC sodium salt 10 mg/mL in PBS; 1 hour at room temperature; UV 340 nm; spot indicates penetration of FITC to the 20th tape strip. The procedure:
An in vitro assay to test for skin penetration enhancement was conducted using hairless guinea pig skin. A full skin sample from the back region of the animal was used. An individual test sample for each peptide in Table 3 was prepared containing the peptide (at a concentration of 1 mg/mL), FITC sodium salt (at a concentration of 10 mg/mL), and PBS (200 microliters). The control sample was prepared containing only FITC sodium salt (at a concentration of 10 mg/mL), and PBS (200 microliters). Each peptide test sample was applied to a separate 1 cm^2 section on the stratum corneum side of the guinea pig skin using a PIPETMAN Classic pipet. In the same manner, the control sample was applied. The treated skin samples were covered, maintained at room temperature for 1 hour and then washed with deionized water for 5 minutes to remove any FITC remaining on the skin surface. Tape stripping of each skin application site was accomplished using Scotch® box tape. The tape was placed on the skin so that it covered the entire surface of an individual application site (width of tape strip approximately 1.5 cm). For each tape stripping procedure, the tape was secured to the skin with three cycles (3 forward and 3 backward passes) of a 300 g hand held roller. Next the tape was grasped by hand at one end and quickly peeled from the skin surface using a single motion. The exact same procedure of tape stripping was repeated for a total of 20 tape stripping operations at each application site. The 20th tape strip for each sample was imaged for FITC using ultraviolet light at 340 nm. The presence of a fluorescent spot on the tape indicated penetration of FITC to the 20th tape strip.

Turning to “1 (ACLPGVLGSC; Phage display library peptides) [compound 1]”, the “Frequency of Sequence in Plaques from Tape Stripping of Human Cadaver Skin Study” value (shortened to “Frequency … of Human Cadaver Skin Study”) with human cadaver skin [1] is on record as 1 n/57. Moreover, the “Frequency of Sequence in Plaques from Hairless Guinea Pig Study” value (“Frequency … from Hairless Guinea Pig Study” for short) with Hairless guinea pigs worked out at 0 n/48.

Take “2 (ACSLPWDASC; Phage display library peptides) [compound 2]”: the “Frequency … of Human Cadaver Skin Study” value in the assay on human cadaver skin [1] is on record as 1 n/57. Also, the “Frequency … from Hairless Guinea Pig Study” value with Hairless guinea pigs was 0 n/48.

Consider “3 (ACDTPRLTHC; Phage display library peptides) [compound 3]”, for which, in the assay with human cadaver skin [1], the “Frequency … of Human Cadaver Skin Study” value amounted to 2 n/57. Besides, in the assay with Hairless guinea pigs, the “Frequency … from Hairless Guinea Pig Study” value was found to be 0 n/48.

“4 (TWTQAWPWGWTW; Phage display library peptides) [compound 4]”: the “Frequency … of Human Cadaver Skin Study” value in the assay on human cadaver skin [1] was 1 n/57. The “Frequency … from Hairless Guinea Pig Study” value in the assay with Hairless guinea pigs is 0 n/48.

On to “5 (AKSSWWGRAYWY; Phage display library peptides) [compound 5]”, for which, in the assay on human cadaver skin [1], the “Frequency … of Human Cadaver Skin Study” value stood at 1 n/57. Further, in the assay with Hairless guinea pigs, the “Frequency … from Hairless Guinea Pig Study” value stood at 0 n/48.

On to “6 (ACLDNTFRAC; Phage display library peptides) [compound 6]”, for which the “Frequency … of Human Cadaver Skin Study” value in the assay with human cadaver skin [1] is listed as 2 n/57. For the same substance, the “Frequency … from Hairless Guinea Pig Study” value in the assay with Hairless guinea pigs is 11 n/48. For the same substance, the “deepest penetration of the green fluorescent signal of GFP in the skin sample (tape strip number)” value in the assay on human cadaver skin [2] worked out at 14.

With “7 (ASSTTLNTLAQ; Phage display library peptides) [compound 7]”, the “Frequency … of Human Cadaver Skin Study” value in the assay on human cadaver skin [1] is 9 n/57. Besides, the “Frequency … from Hairless Guinea Pig Study” value with Hairless guinea pigs stood at 5 n/48.

With “8 (ASSDIPLFTRY; Phage display library peptides) [compound 8]”, the “Frequency … of Human Cadaver Skin Study” value in the assay on human cadaver skin [1] is 1 n/57. For the same substance, in the assay on Hairless guinea pigs, the “Frequency … from Hairless Guinea Pig Study” value is given as 4 n/48.

On to “10 (SHSACSLPWDASCGGGS; Phage display library peptides) [compound 10]”, for which the “Fluorescent Spot Visualized on Tape Strip #20” value (shortened to “Fluorescent Spot Visualized”) with hairless guinea pig skin is recorded as “yes”.

Regarding “12 (SHSTWTQAWPWGWTWGGGS; Phage display library peptides) [compound 12]”, in the assay with hairless guinea pig skin, the “Fluorescent Spot Visualized” value is “yes”.

Consider “13 (SHSAKSSWWGRAYWYGGGS; Phage display library peptides) [compound 13]”, for which the “Fluorescent Spot Visualized” value in the assay on hairless guinea pig skin was “yes”.

As to “14 (SHSACLDNTFRACGGGS; Phage display library peptides) [compound 14]”, the “Fluorescent Spot Visualized” value in the assay with hairless guinea pig skin is on record as “yes”. The “deepest penetration of the green fluorescent signal of GFP in the skin sample (tape strip number)” value in the assay with human cadaver skin [2] was found to be 20.

As for “15 (SHSASSTTLNTLAQWPA; Phage display library peptides) [compound 15]”, in the assay with hairless guinea pig skin, the “Fluorescent Spot Visualized” value is recorded as “yes”.

“16 (SHSASSDIPLFTRYGGGS; Phage display library peptides) [compound 16]”: in the assay on hairless guinea pig skin, the “Fluorescent Spot Visualized” value is recorded as “yes”.
